From US12655461B2 (priority 2020, dated 2026) come the findings set out here.

Data set [1] relates to cyn promoter/operator regulated by cynR (pCyn-v1-GFP). The data set can be described thus: GFP expression from pCyn-v1-GFP (native cyn promoter) induced with cyanate or azide, flow cytometry and bulk lysate fluorescence. It is filed as cell-based, E. coli. Conditions: 1 mM inducer.
Data set [2] has as its system synthetic cyn promoter (pCyn-v2-GFP) in E. coli BW25113-Wt.
For data set [3], the system named is E. coli cells. Conditions: LB media, 37° C., OD600.
For data set [4], the system named is lac promoter in BL21 cells (pEC-GFP). The data set can be described thus: IPTG induction of GFP from lac promoter (pEC-GFP) in BL21 cells. It is filed as cell-based, E. coli. The conditions noted are these: 0.01 mM and 0.1 mM IPTG, 24 hours.

Each structure is given as a SMILES string.

In the case of `N#CO` [sodium cyanate], the “GFP fluorescence of induced cells compared to uninduced control” value in data set [1] (BW25113 wildtype, 19 hours, flow cytometry) is reported as “did not result in any GFP expression”. The “GFP expression of induced cells” value in data set [1] (ΔcynS strain (BW25113-sCB1)) is “recovered the GFP expression”.

As to `[N-]=[N+]=[N-]` [sodium azide], in data set [2], the “azide concentration until which GFP expression increased” value worked out at 1 mM and the “detection limit of the synthetic promoter for azide” value was > 10 µM. Further, the “azide amount showing dramatic influence on the growth of the cells” value in data set [3] is given as > 5 mM.

With `CC(C)S[C@@H]1O[C@H](CO)[C@H](O)[C@H](O)[C@H]1O` [IPTG], the “GFP expression at lower inducer concentrations over time” value in data set [4] is “GFP expression increased with time and reached maximum after 24 hours”.
